No end group written: not given here.
What was measured:
[1] = biological target: MIK2 ectodomain (MIK2^ECD, residues 1–709) (Arabidopsis thaliana) (UniProt Q8VZG8); assay: ITC; 200 μM SCOOP12 in the syringe injected into 20 μM MIK2 ectodomain in the cell; 25 °C; 20 mM sodium citrate pH 5.0, 150 mM NaCl; N fitted to 1
[2] = tested on: A. thaliana seedlings; assay: Seedling growth inhibition (fresh weight); format: in vivo, Arabidopsis thaliana; conditions: mock mean = 1
Experimental: Four-day-old seedlings growing on MS plates were transferred individually into separate wells of transparent 48-well tissue culture plates (Greiner Bio-One) containing 500 μL of liquid MS media with/without elicitor addition. The plates were then transferred back to the growth conditions for an additional 10 days before seedlings were blot-dried and weighed.

[3] = biological target: MIK2–SCOOP12 complex (MIK2 ectodomain with SCOOP12 peptide, formed beforehand in the ITC cell) (Arabidopsis thaliana) (UniProt Q8VZG8); assay: ITC; 200 µM BAK1 ectodomain titrated onto the MIK2–SCOOP12 complex in the cell; 25 °C; 20 mM sodium citrate pH 5.0, 150 mM NaCl; N fitted to 1

MIK2 ectodomain (MIK2^ECD, residues 1–709) (Arabidopsis thaliana), sequence (Q8VZG8 44-709): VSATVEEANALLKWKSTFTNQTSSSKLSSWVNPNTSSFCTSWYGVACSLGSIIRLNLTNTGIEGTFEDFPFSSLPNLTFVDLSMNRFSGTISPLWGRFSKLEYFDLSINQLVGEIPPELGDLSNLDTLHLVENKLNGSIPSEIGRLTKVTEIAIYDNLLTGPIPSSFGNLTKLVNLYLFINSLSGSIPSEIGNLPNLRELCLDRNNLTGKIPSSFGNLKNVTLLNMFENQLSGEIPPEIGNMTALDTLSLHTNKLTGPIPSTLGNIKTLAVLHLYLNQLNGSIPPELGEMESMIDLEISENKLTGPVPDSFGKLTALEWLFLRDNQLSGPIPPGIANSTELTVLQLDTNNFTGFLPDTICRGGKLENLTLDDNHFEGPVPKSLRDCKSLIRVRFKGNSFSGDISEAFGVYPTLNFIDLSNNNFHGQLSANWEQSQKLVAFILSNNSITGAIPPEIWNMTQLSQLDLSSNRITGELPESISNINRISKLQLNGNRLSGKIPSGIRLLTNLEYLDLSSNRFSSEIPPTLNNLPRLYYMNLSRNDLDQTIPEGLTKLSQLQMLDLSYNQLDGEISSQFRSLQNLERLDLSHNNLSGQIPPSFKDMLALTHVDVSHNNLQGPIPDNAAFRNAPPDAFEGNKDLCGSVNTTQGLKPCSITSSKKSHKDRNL

SERINE RICH ENDOGENOUS PEPTIDE 12 (SCOOP12) synthetic peptide
Kd [1]: 4600 nM

YLPPSKSRKGKGP [SCOOP13]
Seedling fresh weight (Fig3C), relative to mock ([2]; Col-0, 1 μM, replicate 1): 0.6301
Seedling fresh weight (Fig3C), relative to mock ([2]; Col-0, 1 μM, replicate 2): 0.5631
Seedling fresh weight (Fig3C), relative to mock ([2]; Col-0, 1 μM, replicate 3): 0.764
Seedling fresh weight (Fig3C), relative to mock ([2]; Col-0, 1 μM, replicate 4): 0.8644
Seedling fresh weight (Fig3C), relative to mock ([2]; Col-0, 1 μM, replicate 5): 0.9892
Seedling fresh weight (Fig3C), relative to mock ([2]; Col-0, 1 μM, replicate 6): 0.5388
Seedling fresh weight (Fig3C), relative to mock ([2]; Col-0, 1 μM, replicate 7): 0.6544
Seedling fresh weight (Fig3C), relative to mock ([2]; Col-0, 1 μM, replicate 8): 0.7792
Seedling fresh weight (Fig3C), relative to mock ([2]; Col-0, 1 μM, replicate 9): 0.7397
Seedling fresh weight (Fig3C), relative to mock ([2]; Col-0, 1 μM, replicate 10): 0.831
Seedling fresh weight (Fig3C), relative to mock ([2]; Col-0, 1 μM, replicate 11): 0.6483
Seedling fresh weight (Fig3C), relative to mock ([2]; Col-0, 1 μM, replicate 12): 0.7549
Seedling fresh weight (Fig3C), relative to mock ([2]; Col-0, 10 μM, replicate 1): 0.02426
Seedling fresh weight (Fig3C), relative to mock ([2]; Col-0, 10 μM, replicate 2): 0.03639
Seedling fresh weight (Fig3C), relative to mock ([2]; Col-0, 10 μM, replicate 3): 0.03942
Seedling fresh weight (Fig3C), relative to mock ([2]; Col-0, 10 μM, replicate 4): 0.03336
Seedling fresh weight (Fig3C), relative to mock ([2]; Col-0, 10 μM, replicate 5): 0.04246
Seedling fresh weight (Fig3C), relative to mock ([2]; Col-0, 10 μM, replicate 6): 0.03033
Seedling fresh weight (Fig3C), relative to mock ([2]; Col-0, 10 μM, replicate 7): 0.03639
Seedling fresh weight (Fig3C), relative to mock ([2]; Col-0, 10 μM, replicate 8): 0.06975
Seedling fresh weight (Fig3C), relative to mock ([2]; Col-0, 10 μM, replicate 9): 0.07278
Seedling fresh weight (Fig3C), relative to mock ([2]; Col-0, 10 μM, replicate 10): 0.04549
Seedling fresh weight (Fig3C), relative to mock ([2]; Col-0, 10 μM, replicate 11): 0.03942
Seedling fresh weight (Fig3C), relative to mock ([2]; Col-0, 10 μM, replicate 12): 0.04852
Seedling fresh weight (Fig3C), relative to mock ([2]; mik2-1, 1 μM, replicate 1): 0.9552
Seedling fresh weight (Fig3C), relative to mock ([2]; mik2-1, 1 μM, replicate 2): 1.033
Seedling fresh weight (Fig3C), relative to mock ([2]; mik2-1, 1 μM, replicate 3): 0.6626
Seedling fresh weight (Fig3C), relative to mock ([2]; mik2-1, 1 μM, replicate 4): 0.8038
Seedling fresh weight (Fig3C), relative to mock ([2]; mik2-1, 1 μM, replicate 5): 1.026
Seedling fresh weight (Fig3C), relative to mock ([2]; mik2-1, 1 μM, replicate 6): 0.9081
Seedling fresh weight (Fig3C), relative to mock ([2]; mik2-1, 1 μM, replicate 7): 1.002
Seedling fresh weight (Fig3C), relative to mock ([2]; mik2-1, 1 μM, replicate 8): 0.9854
Seedling fresh weight (Fig3C), relative to mock ([2]; mik2-1, 1 μM, replicate 9): 1.022
Seedling fresh weight (Fig3C), relative to mock ([2]; mik2-1, 1 μM, replicate 10): 1.049
Seedling fresh weight (Fig3C), relative to mock ([2]; mik2-1, 1 μM, replicate 11): 1.127
Seedling fresh weight (Fig3C), relative to mock ([2]; mik2-1, 1 μM, replicate 12): 1.002
Seedling fresh weight (Fig3C), relative to mock ([2]; mik2-1, 10 μM, replicate 1): 1.163
Seedling fresh weight (Fig3C), relative to mock ([2]; mik2-1, 10 μM, replicate 2): 0.8385
Seedling fresh weight (Fig3C), relative to mock ([2]; mik2-1, 10 μM, replicate 3): 1.18
Seedling fresh weight (Fig3C), relative to mock ([2]; mik2-1, 10 μM, replicate 4): 1.075
Seedling fresh weight (Fig3C), relative to mock ([2]; mik2-1, 10 μM, replicate 5): 0.8419
Seedling fresh weight (Fig3C), relative to mock ([2]; mik2-1, 10 μM, replicate 6): 0.8825
Seedling fresh weight (Fig3C), relative to mock ([2]; mik2-1, 10 μM, replicate 7): 1.082
Seedling fresh weight (Fig3C), relative to mock ([2]; mik2-1, 10 μM, replicate 8): 0.9738
Seedling fresh weight (Fig3C), relative to mock ([2]; mik2-1, 10 μM, replicate 9): 0.9332
Seedling fresh weight (Fig3C), relative to mock ([2]; mik2-1, 10 μM, replicate 10): 0.9569
Seedling fresh weight (Fig3C), relative to mock ([2]; mik2-1, 10 μM, replicate 11): 0.9941
Seedling fresh weight (Fig3C), relative to mock ([2]; mik2-1, 10 μM, replicate 12): 0.896

B1: BAK1 ectodomain (residues 1–220) (domain or fragment)
chain: NAEGDALSALKNSLADPNKVLQSWDATLVTPCTWFHVTCNSDNSVTRVDLGNANLSGQLVMQLGQLPNLQYLELYSNNITGTIPEQLGNLTELVSLDLYLNNLSGPIPSTLGRLKKLRFLRLNNNSLSGEIPRSLTAVLTLQVLDLSNNPLTGDIPVNGSFSLFTPISFANTKLTPLPASPPPPISPTPPSPAGS
Kd [3]: 275 nM
